Earlier results, collected in patent US20040136904A1, “Dry powder compositions comprising labelled particles for inhalation” (priority 2001, published 2004).

Settings: in vivo

In the case of `[Na+].[O]=[Tc](=[O])(=[O])[O-]` [sodium pertechnetate], the “time in which 50% is removed from the surface of the lung” value is given as about 10 min.
